Data as given in US8563578B2, “Antitumor properties of NO modified protease inhibitors” (Onconox APS, priority 2008, dated 2013).
Read-outs that look alike come from different tables or passages of the source.

How the values were obtained:
CD1 mice = conditions: CD1, mouse, in vivo, ip
Experimental: To define the acute toxicity of Sag and Sag NO2, the test compound was administered i.p. to CD1 mice at the single doses of 250, 500, 1000 and 1500 mg/Kg. Control groups were treated i.p. with vehicle (pure DMSO; 100 μl/mouse). Each group consisted of 10 mice. Mortality was evaluated every hour for the first 4 hours and then every 10 hours until 14 days after dosing.

C6 cells = test: Cell proliferation by CFSE staining, C6; assay type: cell-based, rat; conditions: 18.8 μM, 48 h, about 90% of control cells divided
Experimental: Rate of cell proliferation was verified by flow cytometric analysis of cells labelled with CFSE (Kang et al. 2005). CFSE dye is stable in cytoplasm more than 15 generations and the intensity of fluorescence decline after each division. Briefly, detached cells were stained with 1.5 μM CFSE for the 15 min at 37° C., washed 2 times, seeded in 6-well plates at 2×10^5 cells/well and then exposed to drugs. After 24 and 48 h of cultivation cells were trypsinized and washed 2 times. Finally, the cells were resuspended in PBS and analyzed by flow cytometry. Green fluorescence emission was measured with a FACSCalibur (BD, Heidelberg, Germany) and analyzed using CellQuest software.
FIG. 4. […] Results are calculated as indicated in materials and methods and presented as mean±SD from representative of three independent experiment (*p <0.05). […] After 24 h of cultivation without or with drugs, cells were stained with AO orange (B) or PI (C) and analyzed by flow cytometry. The data are presented as mean±SD from three independent experiments. *p<0.05, refers to untreated cultures. […] Cells were incubated with 18.8 μM of Sag or Saq-NO2 for 24 h. After that, the drugs were either removed or not from the cells and incubated for additional 24 h. Cell viability was determined by CV test after 24 and 48 h of incubation (right panels). […]

CCR% e CXCR4 strains = test: In-vitro anti-HIV activity; assay type: cell-based
C6 rat astrocytoma = test: Cell viability, C6 cells; assay type: cell-based; conditions: read-out: reduction of cell viability
Excerpt: Rat glioma C6 and human glioblastoma U251 cell lines were a kind gift from Dr. Pedro Tranque (Universidad de Castilla-La Mancha, Albacete, Spain), murine melanoma B 16, and human adenocarcinoma HeLa, were a kind gift from Dr. Sinisa Radulovic (Institute for Oncology and Radiology of Serbia, Belgrade, Serbia) while mouse fibrosarcoma L929 was obtained from the European Collection of Animal Cell Cultures (Salisbury, UK). Human breast HCC1419 and prostate PC-3 cells were purchased from LGC Promochem srl (Venezia, Italy). Primary mouse fibroblasts and rat astrocytes were prepared as described (Mijatovic et al. 2004). […]
Reduction of 3-4,5-dimethylthiazol-2-yl)-2,5-diphenyltetrazolium bromide (MTT) to formazan depends on mitochondrial activity of cultured cells, absorption of crystal violet dye correlates with the number of adherent, live cells, while the release of cytosolic lactate dehydrogenase (LDH) indicates the disruption of membrane integrity caracteristic for necrotic cells. […] Mitohondrial-dependent production of formazan and intensity of absorbed crystal violet by adherent cells were assessed by an automated microplate reader at 570 nm, while the pyruvate-mediated conversion of 2,4-dinitrophenylhydrazine into visible hydrazone precipitate in LDH assay was measured at 492 nm. […]
FIG. 2. […] Cell viability was then evaluated by CV test. […]

SMILES | lethality (CD1 mice; 500 mg/kg, 24 h) | lethality (CD1 mice; 1000 mg/kg, 14 days) | lethality (CD1 mice; 14 days) | time of death (mean±SD) (CD1 mice; 14 days) | time of death (range) (CD1 mice; 14 days) | cells able to proliferate (divided) (C6 cells) | in-vitro anti-HIV activity compared with Saquinavir (CCR% e CXCR4 strains) | cytotoxicity at 18.8 µM (C6 rat astrocytoma)
CC(C)(C)NC(=O)[C@@H]1C[C@@H]2CCCC[C@@H]2CN1C[C@@H](O)[C@H](Cc1ccccc1)NC(=O)[C@H](CC(N)=O)NC(=O)c1ccc2ccccc2n1 [Saq, Saquinavir, reference compound] | 20% | 30% | 100% | 65 ± 58 h | 18 to 144 h |  |  | 
CC(C)(C)NC(=O)[C@@H]1C[C@@H]2CCCC[C@@H]2CN1C[C@@H](O[N+](=O)[O-])[C@H](Cc1ccccc1)NC(=O)[C@H](CC(N)=O)NC(=O)c1ccc2ccccc2n1 [Saq-NO2, nitric ester of Saquinavir] |  |  |  |  |  | less than 10% | at least as high as that of Saquinavir | ~50%
